Assay results taken from US20240158446A1, “CYCLIC COMPOUND HAVING SELECTIVE INHIBITORY ACTION ON KRAS OVER HRAS AND NRAS” (CHUGAI SEIYAKU KABUSHIKI KAISHA, priority 2021, published 2024).
Read-outs that look alike come from different tables or passages of the source.

What was measured:
[1] = biological target: GDP-bound NRAS wild-type protein (Homo sapiens, UniProt P01111); experiment: Binding to NRAS by surface plasmon resonance (SPR), Single Cycle Kinetics; conditions: for NRAS/KRAS (ratio of KD value for NRAS to KD value for KRAS): GDP-bound NRAS wild-type protein vs GDP-bound KRAS wild-type protein; for NRAS/KRAS (ratio of KD value with respect to GDP-bound NRAS wild-type protein to KD value with respect to KRAS): SPR KD ratio NRAS/KRAS, class symbols
[2] = biological target: GDP-bound HRAS wild-type protein (Homo sapiens, UniProt P01112); experiment: Binding to HRAS by surface plasmon resonance (SPR), Single Cycle Kinetics; conditions: for HRAS/KRAS (ratio of KD value for HRAS to KD value for KRAS): GDP-bound HRAS wild-type protein vs GDP-bound KRAS wild-type protein; for HRAS/KRAS (ratio of KD value with respect to GDP-bound HRAS wild-type protein to KD value with respect to KRAS): SPR KD ratio HRAS/KRAS, class symbols
[3] = tested on: human lung cancer strain NCI-H441;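 also: cell proliferation inhibition after four days measured by CellTiter-Glo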
[4] = biological target: GDP-bound KRAS wild-type protein (Homo sapiens, UniProt P01116); experiment: Binding to KRAS by surface plasmon resonance (SPR), Single Cycle Kinetics
[5] = SPR, Single Cycle Kinetics, GDP-bound KRAS wild-type protein, read-out: KRAS KD
[6] = SPR, Single Cycle Kinetics, 1:1 binding model, GDP-bound KRAS wild-type protein, read-out: KRAS KD
[7] = SPR Single Cycle Kinetics, GDP-bound KRAS wild-type protein, 1:1 binding model, read-out: KRAS KD

Chain of GDP-bound KRAS wild-type protein (P01116 whole entry): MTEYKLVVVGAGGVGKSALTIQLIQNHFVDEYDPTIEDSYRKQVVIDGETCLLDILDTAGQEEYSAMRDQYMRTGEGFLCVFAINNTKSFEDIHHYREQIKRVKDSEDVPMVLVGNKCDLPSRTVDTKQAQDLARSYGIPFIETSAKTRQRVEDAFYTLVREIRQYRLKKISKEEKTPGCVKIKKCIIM
Chain of GDP-bound NRAS wild-type protein (P01111 whole entry): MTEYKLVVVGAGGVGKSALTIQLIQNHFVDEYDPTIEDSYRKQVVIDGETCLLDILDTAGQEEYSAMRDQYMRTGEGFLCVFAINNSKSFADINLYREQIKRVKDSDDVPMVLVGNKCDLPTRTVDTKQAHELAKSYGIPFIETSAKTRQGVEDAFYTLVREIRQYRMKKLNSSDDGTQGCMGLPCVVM
Chain of GDP-bound HRAS wild-type protein (P01112 whole entry): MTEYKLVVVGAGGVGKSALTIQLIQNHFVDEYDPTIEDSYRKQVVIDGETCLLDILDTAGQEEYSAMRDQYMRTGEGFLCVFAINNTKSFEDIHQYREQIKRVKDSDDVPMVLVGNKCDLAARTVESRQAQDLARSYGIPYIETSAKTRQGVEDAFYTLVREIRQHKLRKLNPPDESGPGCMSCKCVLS

SMILES | IC50 [3] | Kd [4, 7] | NRAS/KRAS (ratio of KD value with respect to GDP-bound NRAS wild-type protein to KD value with respect to KRAS) [1] | HRAS/KRAS (ratio of KD value with respect to GDP-bound HRAS wild-type protein to KD value with respect to KRAS) [2] | further results
CCC[C@H]1C(=O)N[C@@H]([C@@H](C)CC)C(=O)N(C2CC2)CC(=O)N(C)[C@H]2C/C=C\CCN(C2=O)[C@@H](Cc2ccc(C(F)(F)F)cc2)C(=O)N(C)CC(=O)N[C@@H](CCc2cc(F)c(C(F)(F)F)c(F)c2)C(=O)N2C[C@H](OCC)C[C@H]2C(=O)N(C)C2(CCC2)C(=O)N(C)[C@@H](C2CCCC2)C(=O)N(C)[C@H](C(=O)N2CCCCC2)CC(=O)N1C [PP3110] | – | – | – | – | NRAS/KRAS (ratio of KD value for NRAS to KD value for KRAS) ([1]; SPR): A (a compound having 10 or more and less than 20 is denoted as A); ratio of the KD value with respect to GDP-bound NRAS wild-type protein to the KD value with respect to KRAS ([1]; SPR, KD(NRAS)/KD(KRAS)): A (a compound having 10 or more and less than 20 is denoted as A); HRAS/KRAS (ratio of KD value for HRAS to KD value for KRAS) ([2]; SPR): A (a compound having 10 or more and less than 20 is denoted as A); ratio of the KD value with respect to GDP-bound HRAS wild-type protein to the KD value with respect to KRAS ([2]; SPR, KD(HRAS)/KD(KRAS)): A (a compound having 10 or more and less than 20 is denoted as A); IC50 ([3]; read-out: NCI-H441 cell proliferation inhibitory activity, 50% proliferation inhibitory concentration (IC50 value), NCI-H441, four days, CellTiter-Glo): 69.9 nM; Kd ([4]; SPR, Single Cycle Kinetics, 1:1 binding model, read-out: KD value with respect to GDP-bound KRAS wild-type protein): 4.3 nM; Kd [4, 5]: 4.3 nM
CCC(CC)[C@H]1C(=O)N(C)[C@H](C(=O)N(C)C)CC(=O)N(C)[C@@H](COC)C(=O)N[C@@H]([C@@H](C)CC)C(=O)N(C2CC2)CC(=O)N(C)[C@H]2C/C=C\CCN(C2=O)[C@@H](Cc2ccc(C)cc2)C(=O)N(C)CC(=O)N[C@@H](CCc2ccc(Cl)c(Cl)c2)C(=O)N2C[C@H](OC(C)C)C[C@H]2C(=O)NC2(CC(C)(C)C2)C(=O)N1C (stereo in doubt) [PP2509] | 91.3 nM | – | – | – | NRAS/KRAS (ratio of KD value for NRAS to KD value for KRAS) ([1]; SPR): AA (a compound having 20 or more is denoted as AA); HRAS/KRAS (ratio of KD value for HRAS to KD value for KRAS) ([2]; SPR): A (a compound having 10 or more and less than 20 is denoted as A); Kd [4, 5]: 2.6 nM
CC[C@H](C)[C@@H]1NC(=O)[C@H](CC)N(C)C(=O)C[C@@H](C(=O)N2CCOCC2)N(C)C(=O)[C@H](C2CCCC2)N(C)C(=O)C2(CCC2)NC(=O)[C@@H]2CCCN2C(=O)[C@H](CCc2cc(F)c(C(F)(F)F)c(F)c2)NC(=O)CN(C)C(=O)[C@H](Cc2ccc(C(F)(F)F)cc2)N2C[C@H](C)[C@H](C)C[C@@H](C2=O)N(C)C(=O)CN(C)C1=O [PP1366] | 14 nM | – | – | – | NRAS/KRAS (ratio of KD value for NRAS to KD value for KRAS) ([1]; SPR, KD ratio class): A (a compound having 10 or more and less than 20 is denoted as A); HRAS/KRAS (ratio of KD value for HRAS to KD value for KRAS) ([2]; SPR, KD ratio class): B (a compound having 3 or more and less than 10 is denoted as B); Kd [4, 6]: 0.11 nM
CCO[C@@H]1C[C@H]2C(=O)NC3(CCC3)C(=O)N(C)[C@@H](C3CCCC3)C(=O)N(C)[C@H](C(=O)N(C)C)CC(=O)N(C)[C@@H](CC3CCCC3)C(=O)N[C@@H]([C@@H](C)CC)C(=O)N(C)CC(=O)N(C)[C@H]3C/C=C\CCN(C3=O)[C@@H](Cc3ccc(C(F)(F)F)cc3)C(=O)N(C)CC(=O)N[C@@H](CCc3ccc(Cl)c(Cl)c3)C(=O)N2C1 [PP1254] | 28.3 nM | – | – | – | NRAS/KRAS (ratio of KD value for NRAS to KD value for KRAS) ([1]; SPR, KD ratio class): AA (a compound having 20 or more is denoted as AA); HRAS/KRAS (ratio of KD value for HRAS to KD value for KRAS) ([2]; SPR, KD ratio class): A (a compound having 10 or more and less than 20 is denoted as A); Kd [4, 6]: 0.2 nM
CCO[C@@H]1C[C@H]2C(=O)NC3(CCC3)C(=O)N(C)[C@@H](C3CCCC3)C(=O)N(C)[C@H](C(=O)N3CCCC3)CC(=O)N(C)[C@@H](CC(C)C)C(=O)N[C@@H]([C@@H](C)CC)C(=O)N(C)CC(=O)N(C)[C@H]3C/C=C\CCN(C3=O)[C@@H](Cc3ccc(C(F)(F)F)cc3)C(=O)N(C)CC(=O)N[C@@H](CCc3cc(F)c(C(F)(F)F)c(F)c3)C(=O)N2C1 [PP1295, (2S,8S,12R,14S,20S,23S,27S,30S,36S,38Z)-20-cyclopentyl-8-[2-[3,5-difluoro-4-(trifluoromethyl)phenyl]ethyl]-12-ethoxy-27-isobutyl-4,19,22,26,32,35-hexamethyl-30-[(1S)-1-methylpropyl]-23-(pyrrolidine-1-carbonyl)-2-[[4-(trifluoromethyl)phenyl]methyl]spiro[1,4,7,10,16,19,22,26,29,32,35-undecazatricyclo[34.5.1.0^10,14]dotetracont-38-ene-17,1′-cyclobutane]-3,6,9,15,18,21,25,28,31,34,42-undecone] | 6.2 nM | – | – | – | NRAS/KRAS (ratio of KD value for NRAS to KD value for KRAS) ([1]; SPR, KD ratio class): AA (a compound having 20 or more is denoted as AA); HRAS/KRAS (ratio of KD value for HRAS to KD value for KRAS) ([2]; SPR, KD ratio class): A (a compound having 10 or more and less than 20 is denoted as A); Kd [4, 6]: 0.12 nM
CCC[C@H]1C(=O)N[C@@H](CC(C)C)C(=O)N(CC)CC(=O)N(C)[C@H]2C/C=C\CCN(C2=O)[C@@H](Cc2ccc(C)cc2)C(=O)N(C)CC(=O)N[C@@H](CCc2ccc(C(F)(F)F)c(Cl)c2)C(=O)N2C[C@H](OCC)C[C@H]2C(=O)NC2(CCC2)C(=O)N(C)[C@@H](C2CCCC2)C(=O)N(C)[C@H](C(=O)N(C)C)CC(=O)N1C [PP2545] | 279 nM | 4.3 nM | A (a compound having 10 or more and less than 20 is denoted as A) | A (a compound having 10 or more and less than 20 is denoted as A) | –
CCC[C@H]1C(=O)N[C@@H](CC(C)C)C(=O)N2C[C@@H](OC)C[C@H]2C(=O)N(C)[C@H]2C/C=C\CCN(C2=O)[C@@H](Cc2ccc(C)cc2)C(=O)N(C)CC(=O)N[C@@H](CCc2ccc(C(F)(F)F)c(Cl)c2)C(=O)N2C[C@H](OCC)C[C@H]2C(=O)NC2(CC(C)(C)C2)C(=O)N(C)[C@@H](C2CCCC2)C(=O)N(C)[C@H](C(=O)N(C)C)CC(=O)N1C [PP2555] | 212 nM | 4.1 nM | A (a compound having 10 or more and less than 20 is denoted as A) | B (a compound having 3 or more and less than 10 is denoted as B) | –
CCC[C@H]1C(=O)N[C@@H]([C@@H](C)CC)C(=O)N(C)CC(=O)N(C)[C@H]2C/C=C\CCN(C2=O)[C@@H](CC2CCC(F)(F)CC2)C(=O)N(C)CC(=O)N[C@@H](CCc2ccc(C(F)(F)F)c(OC)c2)C(=O)N2C[C@H](OCC)C[C@H]2C(=O)NC2(CC(C)(C)C2)C(=O)N(C)[C@@H](C(CC)CC)C(=O)N(C)[C@H](C(=O)N(C)C)CC(=O)N1C [PP2482] | 23.8 nM | – | – | – | NRAS/KRAS (ratio of KD value for NRAS to KD value for KRAS) ([1]; SPR): A (a compound having 10 or more and less than 20 is denoted as A); HRAS/KRAS (ratio of KD value for HRAS to KD value for KRAS) ([2]; SPR): A (a compound having 10 or more and less than 20 is denoted as A); Kd [4, 5]: 0.93 nM

Further lines, with some results ahead:

IC50 [3] | Kd [4, 7] | SMILES | NRAS/KRAS (ratio of KD value with respect to GDP-bound NRAS wild-type protein to KD value with respect to KRAS) [1] | HRAS/KRAS (ratio of KD value with respect to GDP-bound HRAS wild-type protein to KD value with respect to KRAS) [2] | further results
69.5 nM | 1.4 nM | CC[C@H](C)[C@@H]1NC(=O)[C@H](COC)N(C)C(=O)C[C@@H](C(=O)N(C)C)N(C)C(=O)[C@H](C2CCCC2)N(C)C(=O)C2(CC(C)(C)C2)NC(=O)[C@@H]2C[C@@H](OC3CCC3)CN2C(=O)[C@H](CCc2cc(F)c(C(F)(F)F)c(F)c2)NC(=O)CN(C)C(=O)[C@H](CC2CCCCC2)N2CC/C=C\C[C@@H](C2=O)N(C)C(=O)CN(C2CC2)C1=O [PP2618] | A (a compound having 10 or more and less than 20 is denoted as A) | A (a compound having 10 or more and less than 20 is denoted as A) | –
91.9 nM | 1.7 nM | CCC(CC)[C@H]1C(=O)N(C)[C@H](C(=O)N(C)C)CC(=O)N(C)[C@@H](COC)C(=O)N[C@@H]([C@@H](C)CC)C(=O)N(C2CC2)CC(=O)N(C)[C@H]2C/C=C\CCN(C2=O)[C@@H](CC2CCC(F)(F)CC2)C(=O)N(C)CC(=O)N[C@@H](CCc2cc(F)c(C(F)(F)F)c(F)c2)C(=O)N2C[C@H](OC(C)C)C[C@H]2C(=O)NC2(CC(C)(C)C2)C(=O)N1C [PP2523] | A (a compound having 10 or more and less than 20 is denoted as A) | A (a compound having 10 or more and less than 20 is denoted as A) | –
102 nM | 1.9 nM | CCC[C@H]1C(=O)N[C@@H]([C@@H](C)CC)C(=O)N(C2CC2)CC(=O)N(C)[C@H]2C/C=C\CCN(C2=O)[C@@H](CC2CCC(F)(F)CC2)C(=O)N(C)CC(=O)N[C@@H](CCc2ccc(Cl)c(Cl)c2)C(=O)N2C[C@H](OCC)C[C@H]2C(=O)NC2(CC(C)(C)C2)C(=O)N(C)[C@@H](C2CCCC2)C(=O)N(C)[C@H](C(=O)N(C)C)CC(=O)N1C [PP2567] | A (a compound having 10 or more and less than 20 is denoted as A) | A (a compound having 10 or more and less than 20 is denoted as A) | –
17.6 nM | 0.57 nM | CCC[C@H]1C(=O)N[C@@H]([C@@H](C)CC)C(=O)N(C2CC2)CC(=O)N(C)[C@H]2C/C=C\CCN(C2=O)[C@@H](CC2CCC(F)(F)CC2)C(=O)N(C)CC(=O)N[C@@H](CCc2cc(F)c(C(F)(F)F)c(F)c2)C(=O)N2C[C@H](OCC)C[C@H]2C(=O)NC2(CC(C)(C)C2)C(=O)N(C)[C@@H](C2CCCC2)C(=O)N(C)[C@H](C(=O)N(C)C)CC(=O)N1C [PP2566] | A (a compound having 10 or more and less than 20 is denoted as A) | B (a compound having 3 or more and less than 10 is denoted as B) | –
